# Measured values published in US11458138B2 (Novartis AG, priority 2017, dated 2022).
# Key:
# LATS1 = LATS1 (Homo sapiens (Human), UniProt O95835); assay: LATS1 biochemical assay (Table 1A, Compound Examples 1-290; method in the earlier part)
# [1] = system: Phospho-YAP (SER127) in HaCaT cells; assay: pYAP HTRF Assay (HaCaT Cells); type: cell-based, human; conditions: Homo sapiens, 2 hours
# Method: The pYAP HTRF assay was performed using the Phospho-YAP (SER127) 10000 test kit (CisBio, catalogue number 64YAPPEH) according to manufacturer's instructions. Briefly, HaCaT cells were suspended at 1.1×10^6 cells/mL in DMEM (no phenol red)+10% FBS with penicillin-streptomycin-glutamine. 5 μL of cells were dispensed into 1536 well white solid bottom, tissue culture treated plates (5500 cells/well), and incubated for 48 hours at 37° C. 50 nL test compound was transferred into the assay plates containing HaCaT cells using Pintool (GNF) and incubated for 2 hours. […] The plates were incubated overnight (20 hrs) at room temperature covered with metal lids. Plates were read on Pherastar (BMG Labtech) for HTRF (665 nm/620 nm).
# [2] = system: YAP nuclear translocation in HaCaT cells; assay: YAP Translocation Assay (HaCaT Cells); type: cell-based, human; conditions: Homo sapiens, 24 hours
# How it was run: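 HaCaT cells (20,000/well) in DMEM + 10% FBS were plated overnight at 37° C, then exposed to compound for 24 h at 37° C. Cells were fixed with PFA, permeabilized with 0.1% Triton/1.5% BSA and imaged by high-content imaging.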
# LATS1, sequence (O95835 whole entry, looked up): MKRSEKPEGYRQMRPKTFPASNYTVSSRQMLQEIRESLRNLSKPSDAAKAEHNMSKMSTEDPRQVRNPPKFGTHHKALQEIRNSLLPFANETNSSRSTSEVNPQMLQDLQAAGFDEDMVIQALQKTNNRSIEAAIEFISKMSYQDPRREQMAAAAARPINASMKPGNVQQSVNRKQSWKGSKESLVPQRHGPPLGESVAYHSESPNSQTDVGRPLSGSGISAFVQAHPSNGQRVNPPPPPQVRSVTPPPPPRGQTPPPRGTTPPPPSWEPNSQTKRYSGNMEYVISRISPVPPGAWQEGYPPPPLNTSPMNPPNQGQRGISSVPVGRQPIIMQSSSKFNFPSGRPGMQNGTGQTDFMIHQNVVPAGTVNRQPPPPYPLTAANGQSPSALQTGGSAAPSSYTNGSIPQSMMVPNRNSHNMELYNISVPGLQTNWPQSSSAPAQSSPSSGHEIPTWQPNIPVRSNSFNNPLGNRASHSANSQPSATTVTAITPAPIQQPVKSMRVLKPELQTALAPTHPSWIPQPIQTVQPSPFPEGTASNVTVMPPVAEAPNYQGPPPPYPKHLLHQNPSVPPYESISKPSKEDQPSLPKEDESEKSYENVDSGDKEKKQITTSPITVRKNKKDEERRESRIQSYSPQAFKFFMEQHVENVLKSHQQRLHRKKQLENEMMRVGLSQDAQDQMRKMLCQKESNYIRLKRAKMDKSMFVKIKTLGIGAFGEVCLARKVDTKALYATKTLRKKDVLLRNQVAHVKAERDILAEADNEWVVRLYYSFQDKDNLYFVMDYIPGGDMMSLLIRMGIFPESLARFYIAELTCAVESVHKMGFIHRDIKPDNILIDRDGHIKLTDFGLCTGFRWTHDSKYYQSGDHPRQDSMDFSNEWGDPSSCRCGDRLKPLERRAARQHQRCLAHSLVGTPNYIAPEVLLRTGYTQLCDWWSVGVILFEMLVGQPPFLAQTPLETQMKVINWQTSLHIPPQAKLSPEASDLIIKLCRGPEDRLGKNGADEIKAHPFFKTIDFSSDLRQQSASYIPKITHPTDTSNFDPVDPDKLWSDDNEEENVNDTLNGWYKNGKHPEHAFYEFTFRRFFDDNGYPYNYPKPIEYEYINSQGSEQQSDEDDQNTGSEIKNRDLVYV
# LATS1, sequence (Q7L9L4 whole entry partner, looked up): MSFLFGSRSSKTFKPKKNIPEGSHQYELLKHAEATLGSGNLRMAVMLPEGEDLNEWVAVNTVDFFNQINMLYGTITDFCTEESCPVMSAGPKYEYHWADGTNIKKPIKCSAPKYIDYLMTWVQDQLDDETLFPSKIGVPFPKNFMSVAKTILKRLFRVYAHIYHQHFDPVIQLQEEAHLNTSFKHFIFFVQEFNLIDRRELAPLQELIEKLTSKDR
Compound,IC50 (LATS1) [µM],IC50 [1] [µM],EC50 [2] [µM]
CC(C)(CN1CCOCC1)Nc1nc(-c2ccncc2)nc2cnccc12 [Example 74],0.006,3.4,12.7
"CC(C)(COC(C)(C)C)Nc1nc(-c2ccncc2)nc2cnccc12 [Example 75, N-[1-(tert-butoxy)-2-methylpropan-2-yl]-2-(pyridin-4-yl)pyrido[3,4-d]pyrimidin-4-amine]",0.008,3.8,6.91
"OCC(CC(F)(F)F)Nc1nc(-c2ccncc2)nc2cnccc12 (stereo not drawn) [Example 76, 4,4,4-trifluoro-2-{[2-(pyridin-4-yl)pyrido[3,4-d]pyrimidin-4-yl]amino}butan-1-ol]",0.009,6.42,9.41
"CC(C)(Nc1nc(-c2ccncc2)nc2cnccc12)c1ccccc1 [Example 81, N-(2-phenylpropan-2-yl)-2-(pyridin-4-yl)pyrido[3,4-d]pyrimidin-4-amine]",0.011,42.8,17
"Fc1ccccc1Nc1nc(-c2ccncc2)nc2cnccc12 [Example 82, N-(2-fluorophenyl)-2-(pyridin-4-yl)pyrido[3,4-d]pyrimidin-4-amine]",0.013,> 100,> 20
"OC1(CNc2nc(-c3ccncc3)nc3cnccc23)CCCC1 [Example 87, 1-({[2-(pyridin-4-yl)pyrido[3,4-d]pyrimidin-4-yl]amino}methyl)cyclopentan-1-ol]",0.03,51.6,> 20
"CN(C)c1nc(-c2ccncc2)nc2cnccc12 [Example 88, N,N-dimethyl-2-(pyridin-4-yl)pyrido[3,4-d]pyrimidin-4-amine]",0.037,69.8,29.3
"COc1ccc(Nc2nc(-c3ccncc3)nc3cnccc23)cc1 [Example 91, N-(4-methoxyphenyl)-2-(pyridin-4-yl)pyrido[3,4-d]pyrimidin-4-amine]",0.148,> 10,> 20
"Fc1cccc(Nc2nc(-c3ccncc3)nc3cnccc23)c1 [Example 95, N-(3-fluorophenyl)-2-(pyridin-4-yl)pyrido[3,4-d]pyrimidin-4-amine]",> 1.44,> 10,> 20
"CC(C)(CNC(=O)OC(C)(C)C)Nc1nc(-c2ccncc2)nc2cnccc12 [Example 100, Tert-butyl N-(2-methyl-2-{[2-(pyridin-4-yl)pyrido[3,4-d]pyrimidin-4-yl]amino}propyl)carbamate]",0.004,11.6,4.83
"CC1CCCCN1CC(C)(C)Nc1nc(-c2ccncc2)nc2cnccc12 (stereo not drawn) [Example 108, N-[2-methyl-1-(2-methylpiperidin-1-yl)propan-2-yl]-2-(pyridin-4-yl)pyrido[3,4-d]pyrimidin-4-amine]",0.027,11.8,> 19.3
"CCN(c1nc(-c2ccncc2F)nc2cnccc12)C(C)C [Example 120, N-ethyl-2-(3-fluoropyridin-4-yl)-N-(propan-2-yl)pyrido[3,4-d]pyrimidin-4-amine]",0.01,2.14,2.93
"C[C@@H](N(C)c1nc(-c2ccncc2F)nc2cnccc12)C(F)(F)F [Example 137, 2-(3-fluoropyridin-4-yl)-N-methyl-N-[(2R)-1,1,1-trifluoropropan-2-yl]pyrido[3,4-d]pyrimidin-4-amine]",0.022,35.5,> 17.8
"CC(C)(Nc1nc(-c2c[nH]nc2C(F)(F)F)nc2cnccc12)C(F)(F)F [Example 145, N-(1,1,1-trifluoro-2-methylpropan-2-yl)-2-[3-(trifluoromethyl)-1H-pyrazol-4-yl]pyrido[3,4-d]pyrimidin-4-amine]",0.012,> 100,9.31

# The next lines start with results.
IC50 (LATS1) [µM],Compound,IC50 [1] [µM],EC50 [2] [µM]
0.006,"CCC(CC)Nc1nc(-c2ccncc2)nc2cnccc12 [Example 73, N-(pentan-3-yl)-2-(pyridin-4-yl)pyrido[3,4-d]pyrimidin-4-amine]",9.07,8.26
0.009,"CCCCCNc1nc(-c2ccncc2)nc2cnccc12 [Example 77, N-pentyl-2-(pyridin-4-yl)pyrido[3,4-d]pyrimidin-4-amine]",> 100,13.4
0.011,"CCC(CO)Nc1nc(-c2ccncc2)nc2cnccc12 (stereo not drawn) [Example 78, 2-{[2-(pyridin-4-yl)pyrido[3,4-d]pyrimidin-4-yl]amino}butan-1-ol]",12.1,14.3
0.011,"CC(C)(Cc1ccc(F)cc1)Nc1nc(-c2ccncc2)nc2cnccc12 [Example 80, N-[1-(4-fluorophenyl)-2-methylpropan-2-yl]-2-(pyridin-4-yl)pyrido[3,4-d]pyrimidin-4-amine]",21.6,12.9
0.017,"CC(C)(Nc1nc(-c2ccncc2)nc2cnccc12)c1ccc(F)cc1 [Example 83, N-[2-(4-fluorophenyl)propan-2-yl]-2-(pyridin-4-yl)pyrido[3,4-d]pyrimidin-4-amine]",42.1,28.2
0.026,"CNc1nc(-c2ccncc2)nc2cnccc12 [Example 86, N-methyl-2-(pyridin-4-yl)pyrido[3,4-d]pyrimidin-4-amine]",56,> 20
0.044,"Cc1ccccc1Nc1nc(-c2ccncc2)nc2cnccc12 [Example 89, N-(2-methylphenyl)-2-(pyridin-4-yl)pyrido[3,4-d]pyrimidin-4-amine]",> 100,> 100
0.002,"CC(C)CNc1nc(-c2ccncc2)nc2cnccc12 [Example 103, N-(2-methylpropyl)-2-(pyridin-4-yl)pyrido[3,4-d]pyrimidin-4-amine]",2.64,2.27
0.005,"CC(C)(CC#N)Nc1nc(-c2ccncc2)nc2cnccc12 [Example 104, 3-methyl-3-{[2-(pyridin-4-yl)pyrido[3,4-d]pyrimidin-4-yl]amino}butanenitrile]",2.6,5.19
0.001,"NCCCCCCNc1nc(-c2ccncc2)nc2cnccc12 [Example 105, N-(6-aminohexyl)-2-(pyridin-4-yl)pyrido[3,4-d]pyrimidin-4-amine]",19.9,> 20
0.003,"NCCCCNc1nc(-c2ccncc2)nc2cnccc12 [Example 106, N-(4-aminobutyl)-2-(pyridin-4-yl)pyrido[3,4-d]pyrimidin-4-amine]",14.2,> 20
0.008,"CC(C)(C#N)Nc1nc(-c2ccncc2)nc2cnccc12 [Example 107, 2-methyl-2-{[2-(pyridin-4-yl)pyrido[3,4-d]pyrimidin-4-yl]amino}propanenitrile]",31.2,20
0.002,"Cc1[nH]c2ncccc2c1-c1nc(NC(C)(C)C)c2ccncc2n1 [Example 114, N-tert-butyl-2-{2-methyl-1H-pyrrolo[2,3-b]pyridin-3-yl}pyrido[3,4-d]pyrimidin-4-amine]",0.565,1.33
0.018,"CCN(c1nc(-c2ccncc2C)nc2cnccc12)C(C)C [Example 123, N-ethyl-2-(3-methylpyridin-4-yl)-N-(propan-2-yl)pyrido[3,4-d]pyrimidin-4-amine]",9.45,9.2
0.022,"COCC(C)(C)Nc1nc(-c2ccncc2Cl)nc2cnccc12 [Example 124, 2-(3-chloropyridin-4-yl)-N-(1-methoxy-2-methylpropan-2-yl)pyrido[3,4-d]pyrimidin-4-amine]",8.01,12
0.002,"Cc1n[nH]cc1-c1nc(NC(C)(C)C(F)(F)F)c2ccncc2n1 [Example 135, 2-(3-methyl-1H-pyrazol-4-yl)-N-(1,1,1-trifluoro-2-methylpropan-2-yl)pyrido[3,4-d]pyrimidin-4-amine]",0.488,0.85
0.002,"CC1(Nc2nc(-c3ccnc(N)c3)nc3cnccc23)CC1 [Example 138, 4-{4-[(1-methylcyclopropyl)amino]pyrido[3,4-d]pyrimidin-2-yl}pyridin-2-amine]",3.37,9.07
0.004,"CC1(Nc2nc(-c3ccncc3C#N)nc3cnccc23)CC1 [Example 141, 4-{4-[(1-methylcyclopropyl)amino]pyrido[3,4-d]pyrimidin-2-yl}pyridine-3-carbonitrile]",13.6,> 10
0.006,"CCCNc1nc(-c2c(C)[nH]c3ncccc23)nc2cnccc12 [Example 142, 2-{2-methyl-1H-pyrrolo[2,3-b]pyridin-3-yl}-N-propylpyrido[3,4-d]pyrimidin-4-amine]",> 100,> 28
0.007,"CC1(Nc2nc(-c3ccc4[nH]ncc4c3)nc3cnccc23)CC1 [Example 143, 2-(1H-indazol-5-yl)-N-(1-methylcyclopropyl)pyrido[3,4-d]pyrimidin-4-amine]",> 10,> 20
0.069,"CC1(Nc2nc(-c3c(F)cncc3F)nc3cnccc23)CC1 [Example 147, 2-(3,5-difluoropyridin-4-yl)-N-(1-methylcyclopropyl)pyrido[3,4-d]pyrimidin-4-amine]",> 10,> 20
